The text below walks through data of US20050059585A1, “Methionine aminopeptidase-2 inhibitors and methods of use thereof” (Praecis Pharmaceuticals Inc., priority 2000, published 2005).

The structures appear in SMILES notation. Some results are limits rather than exact numbers.

Common to all, as to experiment: tumor cell line panel, SRB growth assay
Format in all cases: cell-based

For assay [1], the system named is MDA-MB-231/ATCC. Particulars: Homo sapiens, Breast, 48 hours. The method, then: (§1) The compound of example 5 was also evaluated against a panel of cancer cell lines (Alley, M.C. et al. […] Cancer Research 48: 589-601; Grever, M. R., et al. (1992) Seminars in Oncology, Vol. 19, No. 6, pp 622-638; Boyd, M. R., and Paull, K. D. (1995) Drug Development Research 34: 91-109). The human tumor cell lines of the cancer screening panel were grown in RPMI 1640 medium containing 5% fetal bovine serum and 2 mM L-glutamine. Cells were inoculated into 96 well microtiter plates in 100 μL at plating densities ranging from 5,000 to 40,000 cells/well depending on the doubling time of individual cell lines. After cell inoculation, the microtiter plates were incubated at 37° C., 5 % CO2, 95 % air and 100 % relative humidity for 24 hours prior to addition of experimental drugs.
(§2) After the 24 hour incubation period, two plates of each cell line were fixed in situ with TCA, to represent a measurement of the cell population for each cell line at the time of drug addition (Tz). Experimental drugs were solubilized in dimethyl sulfoxide at 400-fold the desired final maximum test concentration and stored frozen prior to use. At the time of drug addition, an aliquot of frozen concentrate was thawed and diluted to twice the desired final maximum test concentration with complete medium containing 50 μg/ml gentamicin. Additional four, 10-fold or ½ log serial dilutions were made to provide a total of five drug concentrations plus control. Aliquots of 100 μl of these different drug dilutions were added to the appropriate microtiter wells already containing 100 μl of medium, resulting in the required final drug concentrations.
(§3) Following drug addition, the plates were incubated for an additional 48 hours at 37° C., 5 % CO2, 95 % air, and 100 % relative humidity. For adherent cells, the assay was terminated by the addition of cold TCA. Cells were fixed in situ by the gentle addition of 50 μl of cold 50 % (w/v) TCA (final concentration, 10% TCA) and incubated for 60 minutes at 4° C. The supernatant was discarded, and the plates were washed five times with tap water and air dried. Sulforhodamine B (SRB) solution (100 μl) at 0.4 % (w/v) in 1 % acetic acid were added to each well, and plates were incubated for 10 minutes at room temperature. After staining, unbound dye was removed by washing five times with 1 % acetic acid and the plates were air dried. Bound stain was subsequently solubilized with 10 mM trizma base, and the absorbance was read on an automated plate reader at a wavelength of 515 nm. For suspension of the cells, the methodology used was the same except that the assay was terminated by fixing settled cells at the bottom of the wells by gently adding 50 μl of 80 % TCA (final concentration, 16% TCA). Using the seven absorbance measurements [time zero, (Tz), control growth, (C), and test growth in the presence of drug at the five concentration levels (Ti)], the percentage growth was calculated at each of the drug concentrations levels.
(§4) Percentage growth inhibition was calculated as: [(Ti−Tz)/(C−Tz)]×100 for concentrations for which Ti>/=Tz [(Ti−Tz)/Tz]×100 for concentrations for which Ti<Tz.
(§5) Growth inhibition of 50% (GI50) was calculated from [(Ti−Tz)/(C−Tz)]×100=50, which is the drug concentration resulting in a 50% reduction in the net protein increase (as measured by SRB staining) in control cells during the drug incubation. The G150 was calculated for each of the cell lines if the level of activity is reached; however, if the effect was not reached or is exceeded, the value for that parameter is expressed as greater or less than the maximum (10^−4 M) or minimum (10^−8 M) concentration tested.

Assay [2] has as its system SF-295. Particulars: Homo sapiens; SF-295, CNS, 48 hours. The method, then: as §1, §2, §3, §4, §5
Assay [3] has as its system SNB-75. Particulars: Homo sapiens; SNB-75, CNS, 48 hours. The method, then:
as §1, §2, §3, §4, §5

In assay [4] the test system is A498. Particulars: Homo sapiens; A498, Renal, 48 hours. The method, then:
as §1, §2, §3, §4, §5

The test system of assay [5] is SK-MEL-28. The note with it: Homo sapiens; SK-MEL-28, Melanoma, 48 hours. The method, then: as §1, §2, §3, §4, §5
The subject of assay [6] is CAKI-1. Particulars: Homo sapiens; CAKI-1, Renal, 48 hours. The method, then: as §1, §2, §3, §4, §5
Assay [7] deals with OVCAR-8. The note with it: Homo sapiens; OVCAR-8, Ovarian, 48 hours. The method, then:
as §1, §2, §3, §4, §5

The test system of assay [8] is SK-MEL-5. Particulars: Homo sapiens; SK-MEL-5, Melanoma, 48 hours. The method, then: as §1, §2, §3, §4, §5
Assay [9] deals with ACHN. Particulars: Homo sapiens, Renal, 48 hours. The method, then: as §1, §2, §3, §4, §5
Assay [10] has as its system HS 578T. Particulars: Homo sapiens, Breast, 48 hours. The method, then:
as §1, §2, §3, §4, §5

Assay [11] has as its system MDA-N. Particulars: Homo sapiens, Breast, 48 hours. The method, then: as §1, §2, §3, §4, §5
Assay [12] concerns SN12C. The note with it: Homo sapiens, Renal, 48 hours. The method, then:
as §1, §2, §3, §4, §5

Assay [13] relates to HT29. Particulars: Homo sapiens, HT-29; HT29, Colon, 48 hours. The method, then:
as §1, §2, §3, §4, §5

For assay [14], the system named is RPMI-8226. The note with it: Homo sapiens; RPMI-8226, Leukemia, 48 hours. The method, then: as §1, §2, §3, §4, §5
Assay [15] has as its system UACC-257. The note with it: Homo sapiens; UACC-257, Melanoma, 48 hours. The method, then:
as §1, §2, §3, §4, §5

Assay [16] relates to UACC-62. Particulars: Homo sapiens; UACC-62, Melanoma, 48 hours. The method, then:
as §1, §2, §3, §4, §5

In assay [17] the test system is NCI/ADR-RES. The note with it: Homo sapiens, Breast, 48 hours. The method, then:
as §1, §2, §3, §4, §5

Assay [18] has as its system NCI-H460. The note with it: Homo sapiens; NCI-H460, Non-Small Cell Lung, 48 hours. The method, then: as §1, §2, §3, §4, §5
In assay [19] the test system is HCT-15. Particulars: Homo sapiens; HCT-15, Colon, 48 hours. The method, then:
as §1, §2, §3, §4, §5

For assay [20], the system named is SR. The note with it: Homo sapiens, Leukemia, 48 hours. The method, then: as §1, §2, §3, §4, §5
Assay [21] deals with IGR-OV1. Particulars: Homo sapiens, IGROV-1; IGR-OV1, Ovarian, 48 hours. The method, then: as §1, §2, §3, §4, §5
For assay [22], the system named is TK-10. Particulars: Homo sapiens; TK-10, Renal, 48 hours. The method, then: as §1, §2, §3, §4, §5

The GI50 is the concentration giving 50% growth inhibition. A low value points to more potent growth inhibition. For the molecule `CO[C@@H]1[C@H](OC(=O)N[C@@H](C(N)=O)C(C)C)CC[C@]2(CO2)[C@H]1[C@@]1(C)O[C@@H]1CC=C(C)C` [Example 5, (1-Carbamoyl-2-methyl-propyl)-carbamic acid-(3R, 4S, 5S, 6R )-5-methoxy-4-[(2R, 3R)-2-methyl-3-(3-methyl-but-2-enyl)-oxiranyl]-1-oxa-spiro[2.5]oct-6-yl ester], the GI50 is under 10 nM in assay [1]; under 10 nM in assay [2]; 90900 nM in assay [3]; over 100000 nM in assay [4]; 5960 nM in assay [5]; under 10 nM in [6]. The GI50 in assay [7] is 18400 nM; in [8], over 100000 nM; in assay [9], under 10 nM; in assay [10], 1150 nM; in assay [11] it was 1580 nM; in assay [12] it was under 10 nM. Besides, the GI50 is 16100 nM in [13]; under 10 nM in assay [14]; 1480 nM in assay [15]; under 10 nM in assay [16]; 34200 nM in [17]; under 10 nM in assay [18]. Also, the GI50 in assay [19] was 7130 nM; in assay [20] it was under 10 nM; in assay [21], under 10 nM; in [22], 54.3 nM.
